IC50 and Activity data for 15 compounds are collected here from ChEMBL document CHEMBL4414666, “Structure-Activity Relationships of Pentacyclic Triterpenoids as Inhibitors of Cyclooxygenase and Lipoxygenase Enzymes” (J Nat Prod, 2019).

Experiment [1] has as its target T1, Prostaglandin G/H synthase 2 (Homo sapiens, UniProt P35354).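 Also: recombinant enzyme produced in baculovirus-infected Sf21 cells, arachidonic acid substrate, PGE2 output quantified by LC-MS after 45 min, compounds preincubated 10 min beforehand, lower PGE2 means inhibition.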
T1 sequence (P35354 whole entry): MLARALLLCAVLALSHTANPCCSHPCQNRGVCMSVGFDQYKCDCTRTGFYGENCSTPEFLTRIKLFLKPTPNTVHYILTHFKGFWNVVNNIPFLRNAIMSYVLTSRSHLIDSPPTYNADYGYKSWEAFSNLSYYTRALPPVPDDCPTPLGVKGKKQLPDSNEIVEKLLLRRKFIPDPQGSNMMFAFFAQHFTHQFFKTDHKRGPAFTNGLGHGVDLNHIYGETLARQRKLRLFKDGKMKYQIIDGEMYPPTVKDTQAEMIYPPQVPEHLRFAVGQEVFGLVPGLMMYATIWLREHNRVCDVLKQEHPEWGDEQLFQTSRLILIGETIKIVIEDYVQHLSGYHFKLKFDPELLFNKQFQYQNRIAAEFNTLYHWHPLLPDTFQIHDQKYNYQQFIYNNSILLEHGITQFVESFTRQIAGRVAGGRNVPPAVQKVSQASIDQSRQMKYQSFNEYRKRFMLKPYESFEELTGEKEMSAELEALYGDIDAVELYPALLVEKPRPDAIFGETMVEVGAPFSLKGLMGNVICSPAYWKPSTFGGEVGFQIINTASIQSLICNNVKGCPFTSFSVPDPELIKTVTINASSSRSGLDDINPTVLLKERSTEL
Nature of the experiment: biochemical. Format: cell-based, Sf21. The conditions noted are these: for pIC50: read-out: IC50.
Description: Inhibition of human recombinant COX2 expressed in baculovirus infected sf21 cells assessed as decrease in PGE2 formation using arachidonic acid as substrate preincubated for 10 mins followed by substrate addition measured after 45 mins by LC-MS analysis

Experiment [2] has as its target T2, Polyunsaturated fatty acid 5-lipoxygenase (Homo sapiens) (UniProt P09917).
T2 sequence (whole entry): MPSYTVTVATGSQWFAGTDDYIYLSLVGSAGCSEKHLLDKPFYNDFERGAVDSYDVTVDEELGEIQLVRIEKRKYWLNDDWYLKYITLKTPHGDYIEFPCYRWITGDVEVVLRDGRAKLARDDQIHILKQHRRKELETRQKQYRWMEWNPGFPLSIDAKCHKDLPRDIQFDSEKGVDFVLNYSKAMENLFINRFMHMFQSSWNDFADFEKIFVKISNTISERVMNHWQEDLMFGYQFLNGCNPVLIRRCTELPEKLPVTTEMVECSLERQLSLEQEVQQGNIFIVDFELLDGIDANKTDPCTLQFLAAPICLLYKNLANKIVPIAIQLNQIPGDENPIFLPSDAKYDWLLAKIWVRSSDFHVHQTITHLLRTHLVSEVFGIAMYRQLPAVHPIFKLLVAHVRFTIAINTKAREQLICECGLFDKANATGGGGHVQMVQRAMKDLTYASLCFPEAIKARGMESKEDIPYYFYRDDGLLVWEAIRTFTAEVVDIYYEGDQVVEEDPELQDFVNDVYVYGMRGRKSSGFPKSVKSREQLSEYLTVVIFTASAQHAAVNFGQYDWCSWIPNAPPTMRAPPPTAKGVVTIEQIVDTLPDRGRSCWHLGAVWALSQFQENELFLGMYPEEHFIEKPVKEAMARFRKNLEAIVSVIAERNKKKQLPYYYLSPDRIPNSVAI
Nature of the experiment: Inhibition of human recombinant 5-LOX expressed in insect cells assessed residual activity using arachidonic acid at 42 uM as substrate preincubated for 5 mins followed by substrate addition measured after 20 mins in dark by ferric ion oxidation-xylenol orange method relative to control.

The target of experiment [3] is T3, Polyunsaturated fatty acid lipoxygenase ALOX15B (Homo sapiens) (UniProt O15296).
T3 sequence (whole entry): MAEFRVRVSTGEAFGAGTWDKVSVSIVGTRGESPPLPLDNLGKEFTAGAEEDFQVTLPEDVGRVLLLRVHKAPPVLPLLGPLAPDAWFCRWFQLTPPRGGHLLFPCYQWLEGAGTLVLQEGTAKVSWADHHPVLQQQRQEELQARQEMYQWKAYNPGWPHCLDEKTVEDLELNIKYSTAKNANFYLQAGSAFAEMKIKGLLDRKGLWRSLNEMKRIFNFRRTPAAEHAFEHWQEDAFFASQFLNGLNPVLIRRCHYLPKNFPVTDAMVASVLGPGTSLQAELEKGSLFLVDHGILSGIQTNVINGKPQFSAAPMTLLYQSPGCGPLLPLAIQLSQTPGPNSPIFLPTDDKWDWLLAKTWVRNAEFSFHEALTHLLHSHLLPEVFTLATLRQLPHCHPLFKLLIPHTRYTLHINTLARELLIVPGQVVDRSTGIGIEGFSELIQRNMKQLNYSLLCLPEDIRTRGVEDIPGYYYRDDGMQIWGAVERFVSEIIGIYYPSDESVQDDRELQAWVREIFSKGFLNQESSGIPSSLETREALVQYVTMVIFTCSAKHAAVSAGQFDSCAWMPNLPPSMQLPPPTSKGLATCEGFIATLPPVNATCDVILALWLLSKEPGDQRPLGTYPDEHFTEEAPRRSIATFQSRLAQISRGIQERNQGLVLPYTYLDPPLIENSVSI
Kind of experiment: Inhibition of human recombinant N-terminal His-tagged 15-LOX2 expressed in Escherichia coli assessed as residual activity at 42 uM using arachidonic acid as substrate preincubated for 5 mins followed by substrate addition measured after 20 mins in dark by ferric ion oxidation-xylenol orange assay relative to control.

In experiment [4] the target is T4, Polyunsaturated fatty acid 5-lipoxygenase (Homo sapiens, UniProt P09917).
T4 sequence (P09917 whole entry): T2 sequence (whole entry)
Nature of the experiment: Inhibition of human recombinant 5-LOX expressed in insect cells assessed as decrease in production of 5-HPETE and 5-HETE using arachidonic acid as substrate preincubated for 5 mins followed by substrate addition measured after 20 mins in dark by ferric ion oxidation-xylenol orange method. The conditions noted are these: for pIC50: read-out: IC50.

Experiment [5] has as its target T5, Polyunsaturated fatty acid lipoxygenase ALOX15B (Homo sapiens, UniProt O15296).
T5 sequence (O15296 whole entry): T3 sequence (whole entry)
Nature of the experiment: Inhibition of human recombinant N-terminal His-tagged 15-LOX2 expressed in Escherichia coli using arachidonic acid as substrate preincubated for 5 mins followed by substrate addition measured after 20 mins in dark by ferric ion oxidation-xylenol orange assay. The conditions noted are these: for pIC50: read-out: IC50.

pIC50: −log10 of the molar value.

Usually pIC50 stands for the IC50 on a negative log10 scale, so that one unit is a factor of ten. On to `CC(=O)O[C@@H]1CC[C@@]2(C)[C@@H](CC[C@]3(C)[C@@H]2CC=C2[C@@H]4[C@@H](C)[C@H](C)CC[C@]4(C)CC[C@]23C)[C@@]1(C)C(=O)O`, for which the pIC50 in experiment [1] is less than 4.40; in experiment [4] it was less than 4.40; in experiment [5], 4.91. For the same compound, the results for the Activity in experiment [2] and in experiment [3] were 69.5% and 24.9%, respectively.
Take `CC(=O)O[C@@H]1CC[C@@]2(C)[C@@H](CC[C@]3(C)[C@@H]2C(=O)C=C2[C@@H]4[C@@H](C)[C@H](C)CC[C@]4(C)CC[C@]23C)[C@@]1(C)C(=O)O` [AKBA]: the pIC50 in experiment [1] was less than 4.40; in experiment [4] it was 4.45; in experiment [5] it was less than 4.40. The Activity in experiment [2] amounted to 41.2%; in experiment [3], 81.7%.
Turning to `CC1(C)CC[C@]2(C)CC[C@]3(C)C(=CC[C@@H]4[C@@]5(C)CC[C@@H](O)[C@](C)(C(=O)O)[C@@H]5CC[C@]43C)[C@@H]2C1`, the pIC50 in experiment [1] was less than 4.40. Also, the Activity in experiment [2] was 48.7%; in experiment [3] it was 100%. For the same compound, in experiment [5], the IC50 result is recorded as “Not Active”.
With `C[C@H]1[C@H](C)CC[C@]2(C(=O)O)CC[C@]3(C)C(=CC[C@@H]4[C@@]5(C)CC[C@H](O)C(C)(C)[C@@H]5CC[C@]43C)[C@H]12` [URSOLIC ACID], the negative-log IC50 (pIC50) in experiment [1], in experiment [4] and in experiment [5] was less than 4.40 throughout. Further, the Activity was found to be 64% in experiment [2] and 63.6% in experiment [3].
For the compound `CC1(C)CC[C@]2(C(=O)O)CC[C@]3(C)C(=CC[C@@H]4[C@@]5(C)C[C@@H](O)[C@H](O)C(C)(C)[C@@H]5CC[C@]43C)[C@@H]2C1` [MASLINIC ACID], the pIC50 in experiment [1] and in experiment [4] was less than 4.40 each time. Besides, the Activity was 62.9% in experiment [2] and 100% in experiment [3]. The IC50 result in experiment [5] is on record as “Not Active”.
With `CC1(C)[C@@H](O)CC[C@]2(C)[C@H]3CC=C4[C@@H]5C[C@@](C)(C(=O)O)CC[C@]5(C)CC[C@@]4(C)[C@]3(C)CC[C@@H]12`, the pIC50 in experiment [1] is less than 4.40. Moreover, the values for the Activity in experiment [2] and in experiment [3] were 49% and 100%, respectively. The IC50 entry in experiment [5] is recorded as “Not Active”.
Turning to `CC1(C)CC[C@]2(C(=O)O)CC[C@]3(C)C(=CC[C@@H]4[C@@]5(C)CC[C@H](O)C(C)(C)[C@@H]5CC[C@]43C)[C@@H]2C1` [OLEANOLIC_ACID], the Activity in experiment [2] and in experiment [3] was 100% each time. For the same compound, the IC50 entry in experiment [4] and in experiment [5] was “Not Active” each time.
`C[C@H]1[C@H](C)CC[C@]2(C)CC[C@]3(C)C(=CC(=O)[C@@H]4[C@@]5(C)CC[C@@H](O)[C@](C)(C(=O)O)[C@@H]5CC[C@]43C)[C@H]12` [11-KETO BOSWELLIC ACID]: the pIC50 in experiment [1] is less than 4.40; in experiment [4], 4.55. For the same compound, the Activity in experiment [2] came out at 31.9%; in experiment [3] it was 100%. In addition, the IC50 entry in experiment [5] is “Not Active”.
For the compound `CC1(C)CC[C@]2(C)CC[C@]3(C)C(=CC[C@@H]4[C@@]5(C)CCC(=O)C(C)(C)[C@@H]5CC[C@]43C)[C@@H]2C1`, the IC50 result in experiment [1] (sf21), in experiment [4] and in experiment [5] was “Not Active” each time. In addition, the Activity in experiment [2] and in experiment [3] was 100% in each case.
For the compound `C[C@H]1[C@H](C)CC[C@]2(C)CC[C@]3(C)C(=CC[C@@H]4[C@@]5(C)CC[C@@H](O)[C@](C)(C(=O)O)[C@@H]5CC[C@]43C)[C@H]12` [BOSWELLIC ACID], the pIC50 in experiment [1] and in experiment [4] was less than 4.40 in each case. For the same compound, the values for the Activity in experiment [2] and in experiment [3] were 53.4% and 100%, respectively. Further, in experiment [5], the IC50 entry is given as “Not Active”.
`C[C@H]1[C@H](C)CC[C@]2(C(=O)O)CC[C@]3(C)C(=CC[C@@H]4[C@@]5(C)C[C@@H](O)[C@H](O)[C@@](C)(CO)[C@@H]5CC[C@]43C)[C@H]12` [ASIATIC ACID]: the pIC50 in experiment [1] and in experiment [4] was less than 4.40 in each case. The Activity in experiment [2] was 61.9%; in experiment [3] it was 100%. Moreover, in experiment [5], the IC50 entry is reported as “Not Active”.
As to `CC(Cc1ccc(O)c(O)c1)C(C)Cc1ccc(O)c(O)c1` (configuration not stated), the Activity in experiment [3] was 31.4%.
As for `C[C@H]1[C@H](C)CC[C@]2(C(=O)O)CC[C@]3(C)C(=CC[C@@H]4[C@@]5(C)C[C@@H](O)[C@H](O)C(C)(C)[C@@H]5CC[C@]43C)[C@H]12` [COROSOLIC ACID], the pIC50 in experiment [1] and in experiment [4] was less than 4.40 throughout. The Activity in experiment [2] was determined as 66.7%; in experiment [3] it was 100%. The IC50 result in experiment [5] is “Not Active”.
For the compound `CC(=O)O[C@@H]1CC[C@@]2(C)[C@@H](CC[C@]3(C)[C@@H]2CC=C2[C@@H]4CC(C)(C)CC[C@]4(C)CC[C@]23C)[C@@]1(C)C(=O)O`, the pIC50 in experiment [1] and in experiment [4] was less than 4.40 each time. Besides, the Activity in experiment [2] came out at 93.1%; in experiment [3], 100%. Besides, the IC50 entry in experiment [5] is on record as “Not Active”.
Consider `CC1(C)CC[C@]2(C(=O)O)CC[C@]3(C)C(=CC[C@@H]4[C@@]5(C)C[C@@H](O)[C@H](O)[C@@](C)(CO)[C@@H]5CC[C@]43C)[C@@H]2C1` [ARJUNOLIC ACID], for which, in experiment [1], the pIC50 was less than 4.40. In addition, the values for the Activity in experiment [2] and in experiment [3] were 47.7% and 100%, respectively. Also, in experiment [5], the IC50 entry is “Not Active”.
